In US5852018A, “Pharmaceutical piperazine compounds” (Xenova Limited, priority 1994, dated 1998):
“And” between values parts separate entries of the source, which are not always exact repeats. Equal entries are not always repeated.

Legend:
AR 1.0 cells [1] = assay: Drug accumulation assay (tritiated daunorubicin) in MDR resistant AR 1.0 cells; format: cell-based; details: Mus musculus, DNR 2 μM; for IC50: 37° C., 1 hr; for Emax: 1 h, 100% = accumulation with 100 μM Verapamil, read-out: MAX accumulation (% 100 μm VRP)
Description: The EMT6 mouse mammary carcinoma cell line and the MDR resistant subline AR 1.0 were cultured in RPMI 1640 medium containing 10% foetal calf serum and 2 mM glutamine at 37° C. in 5% CO2 . Cells were passaged between 1 in 200 and 1 in 2000 in the case of the parental cell line and between 1 in 20 and 1 in 200 in the case of the MDR resistant subline, after trypsinisation (0.25% trypsin, 0.2 gl^-1, EDTA).
AR 1.0 cells were seeded into 96 well opaque culture plates (Canberra Packard). The assay medium contained a mixture of tritiated Daunorubicin (DNR), a cytotoxic agent, and unlabelled DNR (0.25μ Ci/ml; 2 μM). Compounds of formula A were serially diluted in assay medium over a range of concentrations from 100 nM to 100 μM. The cells were incubated at 37° C. for 1 hr before washing and counting of cell associated radioactivity. Each assay included a titration of the known resistance modifying agent Verapamil as positive control. Results were expressed as % maximum accumulation where 100% accumulation is that observed in the presence of 100 μM Verapamil.

AR 1.0 cells [2] = assay: Potentiation of doxorubicin toxicity (potentiation index) in AR 1.0 cells; format: cell-based, mouse; details: four days
AR 1.0 cells [3] = assay: Proliferation assay with and without fixed concentration of doxorubicin (sulphorhodamine B); format: cell-based, mouse; details: four days
Excerpt: Compounds of formula A were examined for their ability to potentiate the toxicity of doxorubicin in AR 1.0 cells.

MDR cells = details: in vitro and in vivo; Cancer Res., 41, 1967-1972 (1981); cited from earlier work
[4] = Mus musculus, 96 h, compound alone, read-out: COMPOUND TOXICITY (IC50)
[5] = cytotoxic agent 0.50 μg/ml, 5760 min, read-out: TOXICITY WITH CYTOTOXIC AGENT (IC 50)
[6] = cytotoxic agent 1.00 μg/ml, 5760 min, read-out: TOXICITY WITH CYTOTOXIC AGENT (IC 50)

SMILES | IC50 (AR 1.0 cells [1]) | Potentiation Index (AR 1.0 cells [2]; Conc Comp 5 μM) | IC50 (AR 1.0 cells [3]; [4]) | sensitisation of MDR cells to Vinca alkaloids (MDR cells) | Potentiation Index (AR 1.0 cells [2]; Conc Comp 3 μM) | IC50 (AR 1.0 cells [3]; [5]) | Emax (AR 1.0 cells [1]) | IC50 (AR 1.0 cells [3]; [6])
COc1ccc(/C=c2/c(=O)[nH]/c(=C\c3ccccc3)c(=O)n2CC2CC2)cc1 [Compound 1454, (3Z,6Z)-3-Benzylidene-1-cyclopropylmethyl-6-(4-methoxybenzylidene)-2,5-piperazinedione] | 10 µM | 10 | 5 µM | – | – | – | – | –
COc1ccc(CCN(C)CCCC(C#N)(c2ccc(OC)c(OC)c2)C(C)C)cc1OC (stereo not drawn) [Verapamil] | – | – | – | sensitise MDR cells to Vinca alkaloids in vitro and in vivo | – | – | – | –
CC(=O)OCCOc1n/c(=C\c2ccccc2)c(=O)n(C)/c1=C\c1ccccc1 [Compound 1818, (3Z,6Z)-5-(2-Acetoxyethoxy)-3,6-dibenzylidene-1-methyl-3,6-dihydro-2-pyrazinone] | 7 µM | – | 1.5 µM | – | – | 0.8 µM | – | –
COC(=O)Cn1c(=O)/c(=C/c2ccccc2)[nH]c(=O)/c1=C/c1ccc(OC)cc1 [Compound 1486, Methyl (3Z,6Z)-3-benzylidene-6-(4-methoxybenzylidene)-2,5-dioxo-1-piperazinylacetate] | 50 µM | – | 10 µM | – | – | – | – | –
COc1ccc(/C=c2\[nH]c(=O)/c(=C/c3ccccc3)n(CC3CC3)c2=O)cc1 [Compound 1500] | 15 µM | – | 20 µM | – | 10 | – | 91.3% | –
CC(=O)OCCn1c(=O)/c(=C/c2ccccc2)n(C)c(=O)/c1=C/c1ccccc1 [Compound 1817, (3Z,6Z)-1-(2-Acetoxyethyl)-3,6-dibenzylidene-4-methyl-2,5-piperazinedione] | 20 µM | – | 20 µM | – | – | 1.5 µM | – | –

Now from value to compound, other results behind:

IC50 (AR 1.0 cells [1]) | SMILES | Potentiation Index (AR 1.0 cells [2]; Conc Comp 5 μM) | IC50 (AR 1.0 cells [3]; [4]) | sensitisation of MDR cells to Vinca alkaloids (MDR cells) | Potentiation Index (AR 1.0 cells [2]; Conc Comp 3 μM) | IC50 (AR 1.0 cells [3]; [5]) | Emax (AR 1.0 cells [1]) | IC50 (AR 1.0 cells [3]; [6])
3 µM | Cn1c(=O)/c(=C/c2ccccc2)nc(OCCCN2C(=O)c3ccccc3C2=O)/c1=C/c1ccccc1 [Compound 1824, (3Z,6Z)-3,6-Dibenzylidene-1-methyl-5-(3-phthalimidopropoxy)-3,6-dihydro-2-pyrazinone] | – | 7 µM | – | 60 and 80 | – | – | –
30 µM | COc1ccc(/C=c2/c(=O)[nH]/c(=C\c3ccccc3)c(=O)n2CC(=O)N2CCCC2)cc1 [Compound 1521, N,N-Tetramethylene-(3Z,6Z)-3-benzylidene-6-(4-methoxybenzylidene)-2,5-dioxo-1-piperazinylacetamide] | – | 70 µM | – | – | – | 65.2% | –
12 µM | COc1ccc(/C=c2/c(=O)n(CC3CC3)/c(=C\c3ccccc3)c(=O)n2C)cc1 [Compound 1833] | – | 9 µM | – | 20 | 1 µM | – | –
10 µM | C=CCn1c(=O)/c(=C/c2ccccc2)n(C)c(=O)/c1=C/c1ccccc1 [Compound 1825, (3Z,6Z)-1-Allyl-3,6-dibenzylidene-4-methyl-2,5-piperazinedione] | – | 20 µM | – | 15 | 1.5 µM | – | –
40 µM | CCN(CC)C(=O)Cn1c(=O)/c(=C/c2ccc(OC)cc2)[nH]c(=O)/c1=C/c1ccccc1 [Compound 1527, N,N-Diethyl-(3Z,6Z)-6-benzylidene-3-(4-methoxybenzylidene)-2,5-dioxo-1-piperazinylacetamide] | – | 40 µM | – | – | – | 73.9% | 1.5 µM
9 µM | Cn1c(=O)/c(=C/c2ccccc2)n(CC2OCCO2)c(=O)/c1=C/c1ccccc1 [Compound 1823, (3Z,6Z)-3,6-Dibenzylidene-4-methyl-2,5-dioxo-1-piperazinylacetaldehydeethylene acetal] | – | 30 µM | – | 20 | 0.7 µM | – | –
10 µM | CCCCCOc1n/c(=C\c2ccccc2)c(=O)n(C)/c1=C\c1ccccc1 [Compound 1855] | – | 6 µM | – | – | 0.8 µM | – | –
15 µM | Cn1c(=O)/c(=C/c2ccccc2)n(Cc2ccccc2)c(=O)/c1=C/c1ccccc1 [Compound 1779, (3Z,6Z)-1-Benzyl-3,6-dibenzylidene-4-methyl-2,5-piperazinedione] | 40 | 15 µM | – | – | – | – | 0.8 µM
